This is an account of results in patent US10702568B2, “Compositions containing silymarin and sulfoalkyl ether cyclodextrin and methods of using the same” (UNIVERSITY OF KANSAS, priority 2015, dated 2020).

The nature of data set [1]: Solubility of silymarin components in water (Example 10, HPLC). The format is physicochemical. The note with it: water; component of Indena silymarin extract, HPLC; read-out: Solubility in water. As for the experimental part: Silymarin components including taxifolin, silydianin, silychristin, silybin A, silybin B, isosilybin A, and isosilybin B were tested for their solubility in water and also for their Log D value. The silymarin extract was obtained from Indena® (Indena Code: 9065110). The HPLC system consisted of Waters system equipped with performance PLUS inline degasser along dual λ absorbance detector set at 288 nm. The chromatographic separation of silymarin constituents was achieved on a Symmetry Shield RP18 column (150×4.6 mm, 5 μm); which was maintained at ambient room temperature conditions. The binary mobile phase system consisted of reservoir A (methanol: 10 mM ammonium acetate pH 5 [65:35 v/v]) and reservoir B (10 mM ammonium acetate, pH 5) were run as per gradient program (0-1.9 min: 25% A and 75% B; 2.0-14.9 min: 80% A and 20% B and 15-37.9 min: 80% A and 20% B and 38-40 min: 25% A and 75% B). The flow rate was 1 mL/min throughout the analytical run.

The nature of data set [2]: Permeation across the porcine intestine (Franz diffusion cell). The note with it: 37° C., receiver PBS pH 7.4. The format is in vitro ADME. As for the experimental part:
The Silymarin-CAPTISOL® complex was tested for its permeability in the GI tract using the porcine intestine and the silymarin solution without CAPTISOL® as a control sample. Freshly excised porcine intestine was cleaned and sandwiched between the two chambers of a Franz diffusion cell with an active diffusion area of 0.64 cm^2. The donor chamber was filled with 0.5 ml of CAPTISOL® enabled silymarin solution (prepared using ligand method) or pure silymarin in Phosphate buffered saline (PBS): Ethanol (80:20) used as a positive control. Receiver chamber was filled with 5 ml of PBS, pH 7.4, which is stirred at 600 rpm with a 3 mm magnetic stir bar at 37° C. temperature maintained with a circulating water bath. 200 μL of buffer from receiver side was withdrawn at different time intervals (0, 1, 2, 4, 6 and 8 h) and equal volume was replaced with fresh PBS buffer. Above samples were transferred into vials and subjected to HPLC analysis.
The control sample was prepared by adding excess of the silymarin extract to Phosphate buffered saline (PBS): Ethanol (80:20). These samples were shook at room temperature for 24 hr, and at equilibrium the samples were centrifuged at 10,000 RPM and filtered using Millipore (0.22 μm) syringe filter. The filtrates were analyzed using HPLC for Taxifolin, Silychristin, Silydianin, Silybin A, Silybin B, Isosilybin A and Isosilybin B after appropriate dilution. […]

Data set [3] can be described thus: Pharmacokinetic study in rat. The note with it: oral, FIG. 21A. The format is in vivo. As for the experimental part:
The Silymarin-CAPTISOL® complex was administered to rat to test its pharmacokinetic properties.
On arrival rats were housed individually in cages at animal care facility in a temperature and humidity controlled room with a 12 h:12 h (light:dark) cycles. The rats were provided with free access to food and water for one week before using for experimental purpose. The 12 rats were equally divided into three groups—Group I: silymarin-CAPTISOL® complex with a CAPTISOL® concentration of 100 mM for oral administration; Group II: silymarin suspension (Control); and Group III: silymarin complex with a CAPTISOL® concentration of 100 mM for intravenous administration. The animals were fasted overnight with free access to water. On the day of experiment, the rat was removed from animal care facility and brought to the procedure lab. The animal was weighed and appropriate dosing volume was determined. For oral administration, rat's head was held in place by gently extending the head back and supporting the lower body. The gavage tube was placed in the mouth and advanced along the lower palate till the esophagus, and the silymarin was administered through the tube. For intravenous administration, the silymarin-CAPTISOL® complex was administered by slow bolus intravenous injection into the tail vein. Approximately 200 μL blood was drawn into heparin coated tubes at pre dose, 0.15, 0.5, 1, 2, 4, 8, 10 and 24 h for oral group II and for intravenous group III. The sampling time points were predose, 0.12, 0.25, 0.5, 1, 2, 4, 8 and 24 h through the jugular vein catheter. Plasma was harvested by centrifuging the blood at 4000 RPM for 5 min and stored frozen at −80±10° C. until analysis.
Stored plasma was thawed just before performing the silymarin components analysis. 200 μL of acetonitrile containing 0.1% of ammonia was added to 50 μL of plasma, and this mixture was vortexed for 5 min and centrifuged at 4° C. for 5 min at 10,000 RPM. After centrifugation, the supernatant was separated and injected into HPLC for analysis of silymarin constituents taxifolin, silydianin, silychristin, silybin A, silybin B, isosilybin A and isosilybin B.
The plasma concentration-time curves of silybin A, silybin B, isosilybin A, and isosilybin B in the Silymarin-CAPTISOL® sample of Group I and the control sample (silymarin suspension) are respectively shown in FIGS. 20A to 20D.

Molecules are shown by their SMILES. ≈ marks a conversion by molar mass, not a printed value.

In general, solubility refers to the concentration that dissolves in the medium under given conditions.

Take `O=C1c2c(O)cc(O)cc2O[C@H](c2ccc(O)c(O)c2)[C@H]1O` [Taxifolin]: the solubility in data set [1] came to 550 µg/mL (≈ 1810 µM). Besides, the “Apparent permeability coefficient Papp × 10^−3” value in data set [2] (Silymarin CAPTISOL® complex in donor chamber) is reported as 9.46 × 10^−3; in data set [2] (Silymarin in Ethanol:PBS (20:80) (control)), 1.12 × 10^−3. Further, the “AUC of Silymarin-CAPTISOL® complex compared with the control sample” value in data set [3] was “higher AUC”.
